Data published in paper PMC7465040, “Cytotoxic and Anti-Plasmodial Activities of Stephania dielsiana Y.C. Wu Extracts and the Isolated Compounds” (Molecules, 2020).
Read-outs that look alike come from different tables or passages of the source.

Columns and labels:
MDA-MB-231 = test: SRB cell proliferation assay, MDA-MB-231; type: cell-based, human; conditions: for IC50: Homo sapiens; for Selectivity index (SI) 184B5 versus MDA-MB-231 / Selectivity index (SI) MCF10A versus MDA-MB-231: Table 2B; for Selectivity index (SI) 184B5 versus MDA-MB-231: non-cancer 184B5 vs cancer MDA-MB-231; for Selectivity index (SI) MCF10A versus MDA-MB-231: non-cancer MCF10A vs cancer MDA-MB-231
Protocol: (§1) In vitro anticancer study: The in vitro anti-proliferative tests were carried out as described previously, using aliquots of the cell lines used therein. Briefly, HeLa, MDA-MB-231 and MDA-MB-468, MCF7, and 184B5 and MCF 10A cell lines were purchased from ATCC. The identity of the cell lines presented in this study were verified by short tandem repeat profiling by Genetica DNA Laboratories (www.celllineauthentication.com) (April 8, 2015). MCF10A was grown in DMEM F12 medium supplemented with 0.02 μg/mL epidermal growth factor, 10% FBS, 10 μg/mL insulin and […] hydrocortisone. MDA-MB-468 were grown in DMEM supplemented with 10% FBS and antibiotics cocktail (100 μg/mL streptomycin, 100 units/mL penicillin and 250 ng/mL amphotericin B). SRB cell proliferation assays were carried out as previously described, with some minor modifications. The concentration range for all tested cell lines were from 100–0.39 μg/mL for extracts and 100–0.39 μM for pure compounds. […] All experiments were carried out at least twice.

[1] = system: chloroquine-resistant W2 P. falciparum strain; test: In vitro anti-plasmodial assay (HRP2 ELISA), W2; type: cell-based, Plasmodium falciparum; conditions: for IC50: Plasmodium falciparum, W2, 72 h, read-out: IC50 (μM ± SD) W2; for SI W2 184B5 / SI W2 MCF10A: Table 3; for SI W2 184B5: selectivity index between 184B5 and parasites W2; for SI W2 MCF10A: selectivity index between MCF10A and parasites W2
Protocol: (§2) Parasites were grown in A-positive human blood (Etablissement Français du Sang, Marseille, France) under controlled atmospheric conditions that consisted of 10% O2, 5% CO2, and 85% N2 at 37 °C with a humidity of 95%.
(§3) In vitro anti-plasmodial assay: The two P. falciparum strains 3D7 and W2 were synchronized twice with sorbitol before use. The clonality of these strains was verified both in our laboratory and in an independent laboratory from the Worldwide Anti-malarial Resistance Network (WWARN) by PCR genotyping of the polymorphic genetic markers msp1 and msp2 and microsatellite loci. The compounds were re-suspended in methanol or DMSO 5% (v/v) and then diluted in methanol to obtain final concentrations ranging from 0.008 to 500 μg/mL (final concentration of 0.5% of methanol or DMSO). […] The plates were incubated for 72 h at 37 °C in controlled atmospheric conditions 5% CO2, 10% O2, and […]. After thawing the plates, haemolysed cultures were homogenized by vortexing the plates. Both the success of the drug susceptibility assay and the appropriate volume of haemolysed culture to use for each assay were determined for each clinical isolate during a preliminary HRP2 ELISA. Both the pre-test and subsequent ELISA assays were performed using a commercial kit (Malaria Ag Celisa, ref KM2159, Cellabs PTY LTD, Brookvale, Australia) according to the manufacturer’s recommendation. The optical density (OD) of each sample was measured with a spectrophotometer (Safire 2, Tecan, Lyon, France). […] The anti-plasmodial in vitro assay was performed five times for each product. The IC50 values represented the mean value calculated from five experiments. According to Hout, a selectivity index (SI) was based on the ratio between anti-parasitic and cytotoxic activities. In the case of our study, a SI was calculated between non-tumorigenic cell line 184B5 and parasites 3D7 or W2 and/or MCF10A and these two parasites.

MCF7 = test: SRB cell proliferation assay, MCF7; type: cell-based, human; conditions: for IC50: Homo sapiens; for Selectivity index (SI) 184B5 versus MCF7 / Selectivity index (SI) MCF10A versus MCF7: Table 2B; for Selectivity index (SI) 184B5 versus MCF7: non-cancer 184B5 vs cancer MCF7; for Selectivity index (SI) MCF10A versus MCF7: non-cancer MCF10A vs cancer MCF7
Protocol: as §1

HeLa = test: SRB cell proliferation assay, HeLa; type: cell-based, human; conditions: for IC50: Homo sapiens, HeLa; for Selectivity index (SI) 184B5 versus HeLa / Selectivity index (SI) MCF10A versus HeLa: Table 2B; for Selectivity index (SI) 184B5 versus HeLa: non-cancer 184B5 vs cancer HeLa; for Selectivity index (SI) MCF10A versus HeLa: non-cancer MCF10A vs cancer HeLa
Protocol: as §1

[2] = system: Plasmodium falciparum 3D7 and W2 strains; test: In vitro anti-plasmodial assay, both strains; type: cell-based
Protocol: as §2, §3

[3] = system: chloroquine-susceptible 3D7 P. falciparum strain; test: In vitro anti-plasmodial assay (HRP2 ELISA), 3D7; type: cell-based, Plasmodium falciparum; conditions: for IC50: Plasmodium falciparum, 3D7, 72 h, read-out: IC50 (μM ± SD) 3D7; for SI 3D7 184B5 / SI 3D7 MCF10A: Table 3; for SI 3D7 184B5: selectivity index between 184B5 and parasites 3D7; for SI 3D7 MCF10A: selectivity index between MCF10A and parasites 3D7; for Selective index SI on 3D7 strain: vs 184B5 and MCF10A
Protocol: as §2, §3

MDA-MB-468 = test: SRB cell proliferation assay, MDA-MB-468; type: cell-based, human; conditions: for IC50: Homo sapiens; for Selectivity index (SI) 184B5 versus MDA-MB-468 / Selectivity index (SI) MCF10A versus MDA-MB-468: Table 2B; for Selectivity index (SI) 184B5 versus MDA-MB-468: non-cancer 184B5 vs cancer MDA-MB-468; for Selectivity index (SI) MCF10A versus MDA-MB-468: non-cancer MCF10A vs cancer MDA-MB-468
Protocol: as §1

[4] = system: HeLa, MDA-MB231, MDA-MB-468, MCF7, 184B5 and MCF10A cell lines; test: SRB cell proliferation assay, whole panel of cell lines; type: cell-based, human
Protocol: as §1

184B5 = test: SRB cell proliferation assay, 184B5 non-cancer cells; type: cell-based, human; conditions: Homo sapiens
Protocol: as §1

MCF 10A = test: SRB cell proliferation assay, MCF10A non-cancer cells; type: cell-based; conditions: Homo sapiens
Protocol: as §1

[5] = MDA-MB-231, Table 2A, SRB, 72 h, read-out: IC50 (μM ± SD) MDA-MB-231
[6] = 72 h, HRP2 ELISA, mean of five experiments
[7] = MCF7, Table 2A, SRB, 72 h, read-out: IC50 (μM ± SD) MCF7
[8] = 72 h, Table 2A, SRB, 72 h, read-out: IC50 (μM ± SD) HeLa
[9] = MDA-MB-468, Table 2A, SRB, 72 h, read-out: IC50 (μM ± SD) MDA-MB-468
[10] = 184B5, Table 2A, SRB, 72 h, read-out: IC50 (μM ± SD) 184B5
[11] = 184B5, Table 3, non-cancer cell line, read-out: IC50 (μM ± SD) 184B5
[12] = Table 2A, SRB, 72 h, read-out: IC50 (μM ± SD) MCF 10A
[13] = Table 3, non-cancer cell line, read-out: IC50 (μM ± SD) MCF 10A

SMILES | IC50 (MDA-MB-231; [5]) | Selectivity index (SI) 184B5 versus MDA-MB-231 (MDA-MB-231) | Selectivity index (SI) MCF10A versus MDA-MB-231 (MDA-MB-231) | IC50 [1, 6] | SI W2 184B5 [1] | SI W2 MCF10A [1] | IC50 (MCF7; [7]) | Selectivity index (SI) 184B5 versus MCF7 (MCF7) | Selectivity index (SI) MCF10A versus MCF7 (MCF7) | IC50 (HeLa; [8]) | Selectivity index (SI) 184B5 versus HeLa (HeLa) | Selectivity index (SI) MCF10A versus HeLa (HeLa) | Anti-plasmodial activity against both 3D7 and W2 (in words) [2] | IC50 [3, 6] | SI 3D7 184B5 [3] | SI 3D7 MCF10A [3] | Selective index SI on 3D7 strain [3] | IC50 (MDA-MB-468; [9]) | Selectivity index (SI) 184B5 versus MDA-MB-468 (MDA-MB-468) | Selectivity index (SI) MCF10A versus MDA-MB-468 (MDA-MB-468) | further results
COc1ccc2c(c1OC)-c1c3c(cc4c1C(C2)N(C)CC4)OCO3 (stereo not drawn) [O-methylbulbocapine 5, O-methylbulbocapnine] | 56.6 ± 9.08 µM | 1.29 | 1.05 | 5.71 ± 0.62 µM | 12.83 | 10.42 | 39.4 ± 6.2 µM | 1.86 | 1.51 | 70.4 ± 11.4 µM | 1.04 | 0.85 | strong activity | 2.81 ± 0.4 µM | 26.07 | 21.16 | > 20 | 48.1 ± 1.69 µM | 1.52 | 1.24 | IC50 ([4]; Homo sapiens, cancer and non-cancer cell lines, read-out: IC50 values, range over the cell lines examined): 39 to 73 µM; IC50 (184B5; [10]): 73.26 ± 0.47 µM; IC50 (184B5; [11]): 73.26 ± 0.47 µM; IC50 (MCF 10A; [12]): 59.5 ± 1.9 µM; IC50 (MCF 10A; [13]): 59.5 ± 1.9 µM
CC(=O)O[C@H]1C(=O)[C@@]2(C)[C@H]([C@H](OC(=O)c3ccccc3)[C@]3(O)C[C@H](OC(=O)[C@H](O)[C@@H](NC(=O)c4ccccc4)c4ccccc4)C(C)=C1C3(C)C)[C@]1(OC(C)=O)CO[C@@H]1C[C@@H]2O [Paclitaxel, reference compound] |  | 1.67 | 1.10 |  |  |  |  | 0.98 | 0.62 |  | 0.7 | 0.44 |  |  |  |  |  |  | 0.67 | 0.42 | IC50 (MDA-MB-231; MDA-MB-231, Table 2A, paclitaxel in nM (footnote a), read-out: IC50 MDA-MB-231): 0.00158 ± 0.00075 µM; IC50 (MCF7; MCF7, Table 2A, paclitaxel in nM (footnote a), read-out: IC50 MCF7): 0.00271 ± 0.00111 µM; IC50 (HeLa; Table 2A, paclitaxel in nM (footnote a), read-out: IC50 HeLa): 0.00381 ± 0.00042 µM; IC50 (MDA-MB-468; MDA-MB-468, Table 2A, paclitaxel in nM (footnote a), read-out: IC50 MDA-MB-468): 0.00396 ± 0.00032 µM; IC50 (184B5; 184B5, Table 2A, paclitaxel in nM (footnote a), read-out: IC50 184B5): 0.00265 ± 0.00191 µM; IC50 (MCF 10A; Table 2A, paclitaxel in nM (footnote a), read-out: IC50 MCF 10A): 0.00167 ± 0.00021 µM
COc1cc2c(cc1OC)-c1cc3ccc(OC)c(OC)c3c[n+]1CC2 [Palmatine chloride 6, palmatine] | > 50 µM |  |  | 3.19 ± 0.64 µM | >15.67 | >15.67 | > 50 µM |  |  | > 100 µM |  |  | strong activity | 1.25 ± 0.28 µM |  |  | > 20 | > 50 µM |  |  | Anti-proliferative activity (in words) [4]: did not show any effect; IC50 (184B5; [10]): > 50 µM; IC50 (184B5; [11]): > 50 µM; IC50 (MCF 10A; [12]): > 50 µM; IC50 (MCF 10A; [13]): > 50 µM
COc1cccc2c1C[C@@H]1c3c(cc4c(c3-2)OCO4)CCN1C [Stephanine 3, stephanine] |  | 1.10 | 1.27 |  | 4.73 | 5.45 |  | 0.96 | 1.11 |  | 1.88 | 2.16 |  |  | 9.06 | 10.42 |  |  | 0.88 | 1.01 | IC50 (MDA-MB-231; MDA-MB-231, 72 h, read-out: IC50 (μM ± SD) MDA-MB-231): 5.66 ± 0.16 µM; Anti-plasmodial activity on W2 (in words) [1]: not effective; IC50 [1]: 1.32 ± 0.38 µM; IC50 (MCF7; MCF7, 72 h, read-out: IC50 (μM ± SD) MCF7): 6.49 ± 0.43 µM; IC50 (HeLa; 72 h, read-out: IC50 (μM ± SD) HeLa): 3.33 ± 0.23 µM; Anti-plasmodial activity on 3D7 (in words) [3]: very effective; IC50 [3]: 0.69 ± 0.15 µM; IC50 (MDA-MB-468; MDA-MB-468, 72 h, read-out: IC50 (μM ± SD) MDA-MB-468): 7.14 ± 2.11 µM; IC50 (184B5; 184B5, 72 h, read-out: IC50 (μM ± SD) 184B5): 6.25 ± 0.14 µM; IC50 (184B5; 184B5, read-out: IC50 (μM ± SD) 184B5): 6.25 ± 0.14 µM; IC50 (MCF 10A; 72 h, read-out: IC50 (μM ± SD) MCF 10A): 7.19 ± 0.33 µM; IC50 (MCF 10A; read-out: IC50 (μM ± SD) MCF 10A): 7.19 ± 0.33 µM
